Data published in EP1459760A9, “Immunopotentiating inosine monophosphate 5'-nucleotidase resistant derivatives and uses thereof” (UNIVERSITY OF SOUTH FLORIDA, priority 1995, dated 1996).

Columns and labels:
5'-nucleotidase = experiment: Percent hydrolysis by 5'-nucleotidase, further set of experiments; type: biochemical, Crotalus atrox; conditions: 20 minutes, 200 µl
[1] = tested on: 5'-nucleotidase (from Crotalus atrox venom); type: biochemical
influenza virus = tested on: influenza virus; set-up: species or system NMRI mice; conditions: mouse, in vivo
[2] = in vivo; cited from earlier work

## Nc1ncnc2c1ncn2[C@@H]1O[C@H](COP(=O)(O)O)[C@@H](O)[C@H]1O [Adenosine MP, adenosine-5'-monophosphate]
5'-nucleotidase; Assay 1
  Percent hydrolysis by 5'-nucleotidase: 100.0%
5'-nucleotidase; Assay 2
  Percent hydrolysis by 5'-nucleotidase: 95.1%
5'-nucleotidase; Assay 3
  Percent hydrolysis by 5'-nucleotidase: 63.7%
[1]
  Hydrolysis (%): 86.0%

## CC(C)CCCC(C)CCCC(C)CCCCC(C)CCCC(C)CCCC(C)C (stereo not drawn) [Squalane]
Influenza virus
  effect on survivors and MST: no effect

## isoprinosine
[2]
  half-life: less than four
